39 compounds from patent publication US20160158200A1, “Combinations of Hepatitis C Virus Inhibitors” (priority 2013, published 2016) can be followed below.

The assay relates to HCV genotype-1a variant with glutamine 30 changed to glutamate in the NS5A protein. In kind it is cell-based. In a few lines: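 Synergy was assessed by combining several fixed amounts of an NS5A-targeting compound with a titration of the second compound of interest.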
Setting [1] is: test compound titrated with BMS-790052 fixed at 200 nM, genotype 1a Q30E replicon.

Read-outs that look alike come from different tables or passages of the source.

As to `CC(C)(C)[C@H](NC(=O)C1C2CCOC21)c1nc(-c2ccc(-c3ccc(-c4cnc([C@@H](NC(=O)C5C6CCOC65)C(C)(C)C)[nH]4)cc3)cc2)c[nH]1` (single isomer, unassigned) [Compound B-163], the “Fold-Synergistic 1a (Q30E)” value under setting [1] is above 100 fold.

Take `CC(C)[C@H](NC(=O)OC(C)(C)C)c1ncc(-c2ccc(-c3ccc(-c4cnc([C@@H](NC(=O)OC(C)(C)C)C(C)(C)C)[nH]4)cc3)cc2)[nH]1` [Compound Y-40]: under setting [1], the “Fold-Synergistic 1a (Q30E)” value is above 100 fold.

As to `CC(C)CC(=O)NC1(c2ncc(-c3ccc(-c4ccc(-c5cnc(C6(NC(=O)CC(C)C)CC6)[nH]5)cc4)cc3)[nH]2)CC1.O=C(O)C(F)(F)F.O=C(O)C(F)(F)F` [Compound N-21], under setting [1], the “Fold-Synergistic 1a (Q30E)” value was below 10 fold.

As for `CC(C)(C(=O)N[C@H](c1nc(-c2ccc(-c3ccc(-c4c[nH]c([C@@H](NC(=O)C(C)(C)C(O)c5ccccc5)C(C)(C)C)n4)cc3)cc2)c[nH]1)C(C)(C)C)C(O)c1ccccc1` (single isomer, unassigned) [Compound N-127C], the “Fold-Synergistic 1a (Q30E)” value under setting [1] is reported as above 100 fold.

For the compound `O=C(c1cccc2cnccc12)N1CCC[C@H]1c1ncc(-c2ccc(-c3ccc(-c4cnc([C@@H]5CCCN5C(=O)c5cccc6cnccc56)[nH]4)cc3)cc2)[nH]1` [Compound S-203], under setting [1], the “Fold-Synergistic 1a (Q30E)” value was below 10 fold.

Regarding `CC(C)[C@H](NC(=O)C(C)(C)C)c1ncc(-c2ccc(-c3ccc(-c4cnc([C@@H](NC(=O)C(C)(C)C)C(C)C)[nH]4)cc3)cc2)[nH]1` [Compound S-34], under setting [1], the “Fold-Synergistic 1a (Q30E)” value was above 100 fold.

Consider `CC1(C(=O)NC(c2nc(-c3ccc(-c4ccc(-c5c[nH]c(C(NC(=O)C6(C)CCCCCO6)C(C)(C)C)n5)cc4)cc3)c[nH]2)C(C)(C)C)CCCCCO1` (stereo not drawn) [Compound Y-91], for which, under setting [1], the “Fold-Synergistic 1a (Q30E)” value is above 100 fold.

In the case of `CCn1nc(C)cc1C(=O)N[C@H](c1ncc(-c2ccc(-c3ccc(-c4cnc([C@@H](NC(=O)c5cc(C)nn5CC)C(C)C)[nH]4)cc3)cc2)[nH]1)C(C)C` [Compound S-99], the “Fold-Synergistic 1a (Q30E)” value under setting [1] is above 10 fold.

On to `CC(C)(C)[C@H](NC(=O)C1CC2CCC(C1)C2(F)F)c1nc(-c2ccc(-c3ccc(-c4c[nH]c([C@@H](NC(=O)C5CC6CCC(C5)C6(F)F)C(C)(C)C)n4)cc3)cc2)c[nH]1` (stereo partly drawn) [Compound P-44], for which the “Fold-Synergistic 1a (Q30E)” value under setting [1] is on record as above 100 fold.

Consider `CC(C)[C@H](NC(=O)CCN1CCCC1=O)c1ncc(-c2ccc(-c3ccc(-c4cnc([C@@H](NC(=O)CCN5CCCC5=O)C(C)C)[nH]4)cc3)cc2)[nH]1` [Compound S-59], for which, under setting [1], the “Fold-Synergistic 1a (Q30E)” value is below 10 fold.

For the compound `CC(C)[C@H](NC(=O)C1(C#N)CC1)c1ncc(-c2ccc(-c3ccc(-c4cnc([C@@H](NC(=O)C5(C#N)CC5)C(C)C)[nH]4)cc3)cc2)[nH]1` [Compound S-54], under setting [1], the “Fold-Synergistic 1a (Q30E)” value was above 100 fold.

As to `CC(C)COC(=O)N[C@H](c1ncc(-c2ccc(-c3ccc(-c4cnc([C@@H](NC(=O)OCC(C)C)C(C)C)[nH]4)cc3)cc2)[nH]1)C(C)C` [Compound S-211], the “Fold-Synergistic 1a (Q30E)” value under setting [1] was above 100 fold.

Regarding `CC(C)(C(=O)N[C@H](c1ncc(-c2ccc(-c3ccc(-c4cnc([C@@H](NC(=O)C(C)(C)C5=CCCCC5)C(C)(C)C)[nH]4)cc3)cc2)[nH]1)C(C)(C)C)C1=CCCCC1` [Compound B86], the “Fold-Synergistic 1a (Q30E)” value under setting [1] is reported as above 100 fold.

Regarding `CN(C(=O)C1CCC(F)(F)CC1)[C@H](c1ncc(-c2ccc(-c3ccc(-c4cnc([C@@H](N(C)C(=O)C5CCC(F)(F)CC5)C(C)(C)C)[nH]4)cc3)cc2)[nH]1)C(C)(C)C` [Compound B-206], the “Fold-Synergistic 1a (Q30E)” value under setting [1] is below 10 fold.

`CC(C)[C@H](NC(=O)c1cccc(C(F)(F)F)c1)c1ncc(-c2ccc(-c3ccc(-c4cnc([C@@H](NC(=O)c5cccc(C(F)(F)F)c5)C(C)C)[nH]4)cc3)cc2)[nH]1` [Compound S-79]: the “Fold-Synergistic 1a (Q30E)” value under setting [1] is above 100 fold.

Take `CC(C)CC(=O)N[C@H](c1ncc(-c2ccc(C#Cc3ccc(-c4cnc([C@@H](NC(=O)CC(C)C)C(C)(C)C)[nH]4)cc3)cc2)[nH]1)C(C)(C)C` [Compound N-3]: the “Fold-Synergistic 1a (Q30E)” value under setting [1] is above 10 fold.

`CC(C)[C@H](N[S+]([O-])C(C)(C)C)c1ncc(-c2ccc(-c3ccc(-c4cnc([C@@H](N[S+]([O-])C(C)(C)C)C(C)C)[nH]4)cc3)cc2)[nH]1` (stereo partly drawn) [Compound Y-61]: the “Fold-Synergistic 1a (Q30E)” value under setting [1] is below 10 fold.

In the case of `CC(C)(C)C(=O)N[C@H]1CCC[C@H]1c1nc(-c2ccc(-c3ccc(-c4c[nH]c([C@@H]5CCC[C@@H]5NC(=O)C(C)(C)C)n4)cc3)cc2)c[nH]1` [Compound L-107], the “Fold-Synergistic 1a (Q30E)” value under setting [1] is above 100 fold.

As to `CC(C)S(=O)(=O)CC(=O)N[C@H](c1nc(-c2ccc(-c3ccc(-c4cnc([C@@H](NC(=O)CS(=O)(=O)C(C)C)C(C)(C)C)[nH]4)cc3)cc2)c[nH]1)C(C)(C)C` [Compound B-182], the “Fold-Synergistic 1a (Q30E)” value under setting [1] was above 100 fold.

On to `COC(C)(CO)C(=O)N[C@H](c1nc(-c2ccc(-c3ccc(-c4c[nH]c([C@@H](NC(=O)C(C)(CO)OC)C(C)(C)C)n4)cc3)cc2)c[nH]1)C(C)(C)C` (single isomer, unassigned) [Compound W-237], for which the “Fold-Synergistic 1a (Q30E)” value under setting [1] is reported as above 100 fold.

On to `CC(C)(OCCF)C(=O)N[C@H](c1nc(-c2ccc(-c3ccc(-c4c[nH]c([C@@H](NC(=O)C(C)(C)OCCF)C(C)(C)C)n4)cc3)cc2)c[nH]1)C(C)(C)C` [Compound Y-3], for which, under setting [1], the “Fold-Synergistic 1a (Q30E)” value is recorded as above 100 fold.

On to `CC(C)(C(=O)N[C@H](c1nc(-c2ccc(-c3ccc(-c4c[nH]c([C@@H](NC(=O)C(C)(C)C(=O)N5CCOCC5)C(C)(C)C)n4)cc3)cc2)c[nH]1)C(C)(C)C)C(=O)N1CCOCC1` [Compound W-135], for which, under setting [1], the “Fold-Synergistic 1a (Q30E)” value is above 10 fold.

Consider `CC(C)[C@H](NC(=O)C(=O)C1CC2CCC(C1)C2(F)F)c1ncc(-c2ccc(-c3ccc(-c4cnc([C@@H](NC(=O)C(=O)C5CC6CCC(C5)C6(F)F)C(C)C)[nH]4)cc3)cc2)[nH]1` (stereo partly drawn) [Compound P-129], for which the “Fold-Synergistic 1a (Q30E)” value under setting [1] is above 100 fold.

Regarding `COc1cc2ccccc2c(C(=O)N2CCC[C@H]2c2ncc(-c3ccc(-c4ccc(-c5cnc([C@@H](NC(=O)C(C)(C)C)C(C)C)[nH]5)cc4)cc3)[nH]2)n1` [Compound Y-13], the “Fold-Synergistic 1a (Q30E)” value is recorded as above 100 fold.

On to `CC(C)[C@H](NC(=O)C(C)(C)C)c1ncc(-c2ccc(-c3ccc(-c4cnc([C@@H](NC(=O)C(C)(C)C)C(C)(C)C)[nH]4)cc3)cc2)[nH]1` [Compound Y-41], for which, under setting [1], the “Fold-Synergistic 1a (Q30E)” value was above 100 fold.

Regarding `CC(C)(C)C(=O)N[C@H](c1ncc(-c2ccc3cc(-c4ccc5nc([C@@H](NC(=O)C(C)(C)C)C(C)(C)C)[nH]c5c4)ccc3c2)[nH]1)C(C)(C)C` [Compound B54], the “Fold-Synergistic 1a (Q30E)” value under setting [1] was above 100 fold.

For `CC(C)(C)C(NC(=O)C1(O)CCCC1)c1nc(-c2ccc(-c3ccc(-c4c[nH]c(C(NC(=O)C5(O)CCCC5)C(C)(C)C)n4)cc3)cc2)c[nH]1` [Compound L-73], the “Fold-Synergistic 1a (Q30E)” value under setting [1] is recorded as above 100 fold.

Consider `CC(C)[C@H](NC(=O)C(C)(C)C)c1nc(-c2ccc(-c3ccc(-c4c[nH]c([C@@H](NC(=O)C(C)(C)C)C(C)C)n4)nc3)cc2)c[nH]1` [Compound N-101, N—((S)-2-methyl-1-(4-(4-(6-(2-((S)-2-methyl-1-pivalamidopropyl)-1H-imidazol-4-yl)pyridin-3-yl)phenyl)-1H-imidazol-2-yl)propyl)pivalamide], for which, under setting [1], the “Fold-Synergistic 1a (Q30E)” value was above 100 fold.

For `CC(C)[C@H](NC(=O)C(C)(C)C)c1nc(-c2ccc3c(c2)CCc2cc(-c4c[nH]c([C@@H](NC(=O)C(C)(C)C)C(C)C)n4)ccc2-3)c[nH]1` [Compound N-74], the “Fold-Synergistic 1a (Q30E)” value under setting [1] was above 100 fold.

With `CC(C)(C)[C@H](NC(=O)C1CCC(F)(F)CC1)c1ncc(-c2ccc(-c3cc4ccc(-c5cnc([C@@H](NC(=O)C6CCC(F)(F)CC6)C(C)(C)C)[nH]5)cc4o3)cc2)[nH]1` [Compound B61], the “Fold-Synergistic 1a (Q30E)” value under setting [1] was above 100 fold.

As for `CC(C)[C@H](NC(=O)CC12CC3CC(CC(C3)C1)C2)c1ncc(-c2ccc(-c3ccc(-c4cnc([C@@H](NC(=O)CC56CC7CC(CC(C7)C5)C6)C(C)C)[nH]4)cc3)cc2)[nH]1` [Compound P-57], the “Fold-Synergistic 1a (Q30E)” value under setting [1] was above 100 fold.

As for `CC(C)C(NC(=O)C(=O)N1CCC(C(F)(F)F)CC1)c1nc(-c2ccc(-c3ccc(-c4c[nH]c(C(NC(=O)C(=O)N5CCC(C(F)(F)F)CC5)C(C)C)n4)cc3)cc2)c[nH]1` (stereo not drawn) [Compound W-53], the “Fold-Synergistic 1a (Q30E)” value under setting [1] is above 100 fold.

On to `CC1(C(=O)N[C@H](c2nc(-c3ccc(-c4ccc(-c5c[nH]c([C@@H](NC(=O)C6(C)CCC(F)(F)CC6)C(C)(C)C)n5)cc4)cc3)c[nH]2)C(C)(C)C)CCC(F)(F)CC1` [Compound P-20], for which, under setting [1], the “Fold-Synergistic 1a (Q30E)” value was above 100 fold.

Regarding `COC(=O)C1(C(=O)N[C@H](c2nc(-c3ccc(-c4ccc(-c5c[nH]c([C@@H](NC(=O)C6(C(=O)OC)CC6)C(C)(C)C)n5)cc4)cc3)c[nH]2)C(C)(C)C)CC1` [Compound W-124], the “Fold-Synergistic 1a (Q30E)” value under setting [1] was above 100 fold.

Regarding `CCCOC(=O)N[C@@H](C(=O)N[C@H](c1ncc(-c2ccc(-c3ccc(-c4cnc([C@@H](NC(=O)[C@H](NC(=O)OCCC)C(C)C)C(C)C)[nH]4)cc3)cc2)[nH]1)C(C)C)C(C)C` [Compound S-248], the “Fold-Synergistic 1a (Q30E)” value under setting [1] is recorded as above 100 fold.

For `C[C@H]1CCN(C(=O)C(=O)N2CCC(F)(F)CC2)C1c1nc(-c2ccc(-c3ccc(-c4c[nH]c(C5[C@@H](C)CCN5C(=O)C(=O)N5CCC(F)(F)CC5)n4)cc3)cc2)c[nH]1` (stereo partly drawn) [Compound W-186], the “Fold-Synergistic 1a (Q30E)” value under setting [1] is recorded as above 100 fold.

Turning to `CC(C)[C@H](NC(=O)C1(CO)CC(F)(F)C1)c1nc(-c2ccc(-c3ccc(-c4c[nH]c([C@@H](NC(=O)C5(CO)CC(F)(F)C5)C(C)C)n4)cc3)cc2)c[nH]1` [Compound N-154], the “Fold-Synergistic 1a (Q30E)” value under setting [1] is above 100 fold.

Take `CC(C)(C)[C@H](NC(=O)C1(N2CCC(F)(F)CC2)COC1)c1nc(-c2ccc(-c3ccc(-c4c[nH]c([C@@H](NC(=O)C5(N6CCC(F)(F)CC6)COC5)C(C)(C)C)n4)cc3)cc2)c[nH]1` [Compound W-63]: under setting [1], the “Fold-Synergistic 1a (Q30E)” value is reported as above 100 fold.

Turning to `CC(C)(C)[C@H](NS(=O)(=O)N1CCOCC1)c1nc(-c2ccc(-c3ccc(-c4c[nH]c([C@@H](NS(=O)(=O)N5CCOCC5)C(C)(C)C)n4)cc3)cc2)c[nH]1` [Compound L-119], under setting [1], the “Fold-Synergistic 1a (Q30E)” value is recorded as above 100 fold.
